ChEMBL document CHEMBL4330088, “Targeting the immunity protein kinases for immuno-oncology” (Eur J Med Chem, 2019)
Values belong to the compound of their own block, whether it stands above or below them.

Tests used:
[1] = biological target: T1, Interleukin-1 receptor-associated kinase 4 (Homo sapiens, UniProt Q9NWZ3); test: Inhibition of IRAK4 (unknown origin)
T1 sequence (Q9NWZ3 whole entry): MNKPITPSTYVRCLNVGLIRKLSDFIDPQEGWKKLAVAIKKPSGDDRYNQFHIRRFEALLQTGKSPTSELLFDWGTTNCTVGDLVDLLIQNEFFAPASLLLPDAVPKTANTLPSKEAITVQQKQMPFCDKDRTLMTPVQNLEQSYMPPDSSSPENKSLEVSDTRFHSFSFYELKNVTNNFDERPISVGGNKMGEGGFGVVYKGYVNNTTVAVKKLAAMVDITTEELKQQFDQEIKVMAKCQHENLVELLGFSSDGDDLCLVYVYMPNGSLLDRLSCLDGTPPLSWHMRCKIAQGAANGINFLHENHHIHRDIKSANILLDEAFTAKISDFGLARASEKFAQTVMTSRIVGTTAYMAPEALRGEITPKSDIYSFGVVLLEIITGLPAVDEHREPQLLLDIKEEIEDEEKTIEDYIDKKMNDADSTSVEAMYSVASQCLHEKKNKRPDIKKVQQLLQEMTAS

[2] = biological target: PI3-kinase p110-alpha/p85-alpha (Homo sapiens, UniProt P42336); test: Inhibition of human N-terminal His-tagged PI3Kalpha/p85alpha expressed in Spodoptera frugiperda using phosphatidylinositol as substrate
[3] = biological target: Phosphatidylinositol 4,5-bisphosphate 3-kinase catalytic subunit gamma isoform (Homo sapiens, UniProt P48736); test: Inhibition of PI3Kgamma (unknown origin)
PI3K p110 beta/p85 alpha = PI3K p110 beta/p85 alpha (Homo sapiens, UniProt P42338); test: Inhibition of human full length recombinant N-terminal His-tagged PI3Kbeta/p85alpha expressed in baculovirus infected Sf21 insect cells
Homo sapiens [4] = species: Homo sapiens; test: Selectivity ratio of IC50 for PI3Kdelta (unknown origin) to IC50 for PI3Kgamma (unknown origin)
Homo sapiens [5] = species: Homo sapiens; test: Selectivity ratio of IC50 for PI3Kdelta (unknown origin) to IC50 for human full length recombinant N-terminal His-tagged PI3Kbeta/p85alpha
Homo sapiens [6] = species: Homo sapiens; test: Selectivity ratio of IC50 for PI3Kdelta (unknown origin) to IC50 for human N-terminal His-tagged PI3Kalpha/p85alpha
[7] = Half life of compound in human PBMC; type: ADME, cell-based
[8] = biological target: MAP kinase-interacting serine/threonine-protein kinase 1/2 (Homo sapiens) (UniProt Q9HBH9+Q9BUB5); test: Inhibition of MNK in human PBMC assessed as reduction in eIF4E phosphorylation at 200 mg after 24 hrs relative to control
[9] = biological target: Non-receptor tyrosine-protein kinase TYK2 (Homo sapiens, UniProt P29597); test: Inhibition of TYK2 in human Jurkat cells assessed as reduction in IFN-alpha stimulated TYK2 phosphorylation by […] Western blot analysis; type: cell-based
[10] = biological target: Tyrosine-protein kinase JAK1 (Homo sapiens, UniProt P23458); test: Inhibition of JAK1 in human Jurkat cells assessed as reduction in IFN-alpha stimulated JAK1 phosphorylation by […] Western blot analysis; type: cell-based
[11] = biological target: T2, Tyrosine-protein kinase JAK3 (Homo sapiens, UniProt P52333); test: Inhibition of JAK3 in human Jurkat cells assessed as reduction in IFN-alpha stimulated JAK3 phosphorylation by […] Western blot analysis; type: cell-based
T2 sequence (P52333 whole entry): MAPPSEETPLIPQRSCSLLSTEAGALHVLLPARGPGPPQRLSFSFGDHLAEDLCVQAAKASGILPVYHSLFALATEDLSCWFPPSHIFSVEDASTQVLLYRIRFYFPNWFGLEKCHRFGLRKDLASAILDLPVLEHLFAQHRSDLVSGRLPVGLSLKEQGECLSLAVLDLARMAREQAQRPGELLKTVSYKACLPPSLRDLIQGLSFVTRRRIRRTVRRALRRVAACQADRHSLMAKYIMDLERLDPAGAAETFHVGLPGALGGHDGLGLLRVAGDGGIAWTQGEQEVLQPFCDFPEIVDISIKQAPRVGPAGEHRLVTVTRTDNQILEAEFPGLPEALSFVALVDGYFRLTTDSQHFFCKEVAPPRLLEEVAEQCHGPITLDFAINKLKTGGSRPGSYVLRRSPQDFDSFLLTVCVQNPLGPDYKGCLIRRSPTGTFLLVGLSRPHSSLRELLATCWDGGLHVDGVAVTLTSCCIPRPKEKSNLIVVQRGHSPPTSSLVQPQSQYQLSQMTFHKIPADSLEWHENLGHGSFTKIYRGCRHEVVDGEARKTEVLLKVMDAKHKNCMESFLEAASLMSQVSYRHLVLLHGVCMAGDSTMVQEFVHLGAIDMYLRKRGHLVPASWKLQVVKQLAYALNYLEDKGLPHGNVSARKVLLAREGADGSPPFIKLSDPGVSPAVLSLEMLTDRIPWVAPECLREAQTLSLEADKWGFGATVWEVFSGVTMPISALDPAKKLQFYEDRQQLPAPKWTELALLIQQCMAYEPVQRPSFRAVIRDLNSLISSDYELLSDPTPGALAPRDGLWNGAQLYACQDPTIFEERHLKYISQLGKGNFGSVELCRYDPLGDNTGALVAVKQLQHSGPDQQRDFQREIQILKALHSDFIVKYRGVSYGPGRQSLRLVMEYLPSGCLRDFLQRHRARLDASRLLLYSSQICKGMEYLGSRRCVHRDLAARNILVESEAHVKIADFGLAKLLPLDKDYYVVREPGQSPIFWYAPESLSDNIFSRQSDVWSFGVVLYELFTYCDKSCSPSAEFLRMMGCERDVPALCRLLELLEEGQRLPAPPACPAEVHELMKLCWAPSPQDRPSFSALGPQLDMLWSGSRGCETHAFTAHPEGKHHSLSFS

Chain of PI3K p110 beta/p85 alpha (P27986 whole entry): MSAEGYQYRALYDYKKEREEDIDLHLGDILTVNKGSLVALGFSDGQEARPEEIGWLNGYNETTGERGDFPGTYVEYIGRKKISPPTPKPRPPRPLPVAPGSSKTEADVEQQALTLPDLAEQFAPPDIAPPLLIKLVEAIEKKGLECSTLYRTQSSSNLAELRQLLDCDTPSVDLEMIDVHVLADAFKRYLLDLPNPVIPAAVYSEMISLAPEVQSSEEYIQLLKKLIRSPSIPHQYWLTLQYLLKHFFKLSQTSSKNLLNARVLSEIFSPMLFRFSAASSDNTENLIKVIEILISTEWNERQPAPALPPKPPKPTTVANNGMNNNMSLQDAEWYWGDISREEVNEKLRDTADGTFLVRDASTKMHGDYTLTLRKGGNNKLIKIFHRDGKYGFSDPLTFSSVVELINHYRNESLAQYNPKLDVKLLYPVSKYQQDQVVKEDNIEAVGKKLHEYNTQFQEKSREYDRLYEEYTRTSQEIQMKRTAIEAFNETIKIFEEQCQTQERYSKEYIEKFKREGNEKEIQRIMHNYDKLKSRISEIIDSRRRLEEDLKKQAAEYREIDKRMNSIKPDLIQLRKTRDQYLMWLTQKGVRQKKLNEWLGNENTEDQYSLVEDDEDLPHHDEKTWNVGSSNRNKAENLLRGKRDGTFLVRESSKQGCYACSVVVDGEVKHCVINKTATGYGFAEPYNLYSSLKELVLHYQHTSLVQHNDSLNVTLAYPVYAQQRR
Chain of PI3K p110 beta/p85 alpha (P42338 whole entry): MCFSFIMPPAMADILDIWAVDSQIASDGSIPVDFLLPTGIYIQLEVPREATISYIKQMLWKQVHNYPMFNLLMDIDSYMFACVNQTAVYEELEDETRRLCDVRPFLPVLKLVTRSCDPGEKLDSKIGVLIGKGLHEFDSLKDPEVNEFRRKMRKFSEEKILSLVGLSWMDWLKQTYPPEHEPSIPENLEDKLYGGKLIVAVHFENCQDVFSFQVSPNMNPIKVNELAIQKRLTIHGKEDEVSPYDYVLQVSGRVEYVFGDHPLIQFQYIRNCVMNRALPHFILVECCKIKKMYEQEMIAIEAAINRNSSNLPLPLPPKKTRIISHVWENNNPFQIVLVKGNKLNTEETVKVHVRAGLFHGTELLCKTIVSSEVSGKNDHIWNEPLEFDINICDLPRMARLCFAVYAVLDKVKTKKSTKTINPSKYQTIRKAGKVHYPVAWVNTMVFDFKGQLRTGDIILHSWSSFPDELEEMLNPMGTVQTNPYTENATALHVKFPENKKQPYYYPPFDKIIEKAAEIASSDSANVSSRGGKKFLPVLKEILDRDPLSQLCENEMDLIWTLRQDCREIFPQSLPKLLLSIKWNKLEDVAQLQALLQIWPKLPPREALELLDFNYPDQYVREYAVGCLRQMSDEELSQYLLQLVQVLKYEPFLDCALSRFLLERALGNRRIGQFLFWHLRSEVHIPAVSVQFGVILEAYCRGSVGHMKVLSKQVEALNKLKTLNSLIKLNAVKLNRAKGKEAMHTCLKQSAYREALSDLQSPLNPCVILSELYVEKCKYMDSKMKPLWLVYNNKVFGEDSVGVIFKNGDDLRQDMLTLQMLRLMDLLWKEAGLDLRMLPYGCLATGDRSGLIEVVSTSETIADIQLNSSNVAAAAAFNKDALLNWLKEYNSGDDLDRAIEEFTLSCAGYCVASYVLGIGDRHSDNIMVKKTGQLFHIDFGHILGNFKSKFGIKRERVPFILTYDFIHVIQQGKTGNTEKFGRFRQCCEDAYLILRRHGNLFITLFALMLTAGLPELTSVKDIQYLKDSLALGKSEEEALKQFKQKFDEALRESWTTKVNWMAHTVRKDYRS
Chain of Phosphatidylinositol 4,5-bisphosphate 3-kinase catalytic subunit gamma isoform (P48736 whole entry, canonical isoform): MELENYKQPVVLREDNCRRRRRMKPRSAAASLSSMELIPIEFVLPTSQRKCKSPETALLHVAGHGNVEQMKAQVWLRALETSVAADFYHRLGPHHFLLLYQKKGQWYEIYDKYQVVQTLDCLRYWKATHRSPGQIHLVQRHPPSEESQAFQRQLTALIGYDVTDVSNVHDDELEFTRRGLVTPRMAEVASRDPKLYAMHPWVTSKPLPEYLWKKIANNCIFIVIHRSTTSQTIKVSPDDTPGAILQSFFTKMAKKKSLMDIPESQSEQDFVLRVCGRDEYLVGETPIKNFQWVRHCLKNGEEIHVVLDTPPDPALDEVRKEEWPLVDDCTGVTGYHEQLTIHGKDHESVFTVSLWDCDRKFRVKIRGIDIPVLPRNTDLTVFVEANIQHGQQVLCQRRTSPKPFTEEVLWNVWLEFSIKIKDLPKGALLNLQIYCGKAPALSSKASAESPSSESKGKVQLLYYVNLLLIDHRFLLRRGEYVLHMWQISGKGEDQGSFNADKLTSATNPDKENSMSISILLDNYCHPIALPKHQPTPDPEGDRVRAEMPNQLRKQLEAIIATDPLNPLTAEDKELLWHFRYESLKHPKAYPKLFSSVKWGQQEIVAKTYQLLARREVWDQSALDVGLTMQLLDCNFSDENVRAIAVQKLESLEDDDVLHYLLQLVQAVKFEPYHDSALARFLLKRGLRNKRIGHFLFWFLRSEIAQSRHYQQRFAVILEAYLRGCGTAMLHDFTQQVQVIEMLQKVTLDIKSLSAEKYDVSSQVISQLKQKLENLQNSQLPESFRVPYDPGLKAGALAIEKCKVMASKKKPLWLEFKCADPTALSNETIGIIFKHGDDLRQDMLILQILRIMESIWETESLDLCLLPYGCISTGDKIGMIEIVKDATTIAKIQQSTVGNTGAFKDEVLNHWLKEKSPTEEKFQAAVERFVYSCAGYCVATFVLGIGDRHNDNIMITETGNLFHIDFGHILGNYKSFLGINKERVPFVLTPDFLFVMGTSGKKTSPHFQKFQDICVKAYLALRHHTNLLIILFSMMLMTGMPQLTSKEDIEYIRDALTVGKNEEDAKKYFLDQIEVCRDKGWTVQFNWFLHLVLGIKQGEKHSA
Chain of PI3-kinase p110-alpha/p85-alpha (P27986 whole entry, canonical isoform): as the sequence (P27986 whole entry) above
Chain of PI3-kinase p110-alpha/p85-alpha (P42336 whole entry, canonical isoform): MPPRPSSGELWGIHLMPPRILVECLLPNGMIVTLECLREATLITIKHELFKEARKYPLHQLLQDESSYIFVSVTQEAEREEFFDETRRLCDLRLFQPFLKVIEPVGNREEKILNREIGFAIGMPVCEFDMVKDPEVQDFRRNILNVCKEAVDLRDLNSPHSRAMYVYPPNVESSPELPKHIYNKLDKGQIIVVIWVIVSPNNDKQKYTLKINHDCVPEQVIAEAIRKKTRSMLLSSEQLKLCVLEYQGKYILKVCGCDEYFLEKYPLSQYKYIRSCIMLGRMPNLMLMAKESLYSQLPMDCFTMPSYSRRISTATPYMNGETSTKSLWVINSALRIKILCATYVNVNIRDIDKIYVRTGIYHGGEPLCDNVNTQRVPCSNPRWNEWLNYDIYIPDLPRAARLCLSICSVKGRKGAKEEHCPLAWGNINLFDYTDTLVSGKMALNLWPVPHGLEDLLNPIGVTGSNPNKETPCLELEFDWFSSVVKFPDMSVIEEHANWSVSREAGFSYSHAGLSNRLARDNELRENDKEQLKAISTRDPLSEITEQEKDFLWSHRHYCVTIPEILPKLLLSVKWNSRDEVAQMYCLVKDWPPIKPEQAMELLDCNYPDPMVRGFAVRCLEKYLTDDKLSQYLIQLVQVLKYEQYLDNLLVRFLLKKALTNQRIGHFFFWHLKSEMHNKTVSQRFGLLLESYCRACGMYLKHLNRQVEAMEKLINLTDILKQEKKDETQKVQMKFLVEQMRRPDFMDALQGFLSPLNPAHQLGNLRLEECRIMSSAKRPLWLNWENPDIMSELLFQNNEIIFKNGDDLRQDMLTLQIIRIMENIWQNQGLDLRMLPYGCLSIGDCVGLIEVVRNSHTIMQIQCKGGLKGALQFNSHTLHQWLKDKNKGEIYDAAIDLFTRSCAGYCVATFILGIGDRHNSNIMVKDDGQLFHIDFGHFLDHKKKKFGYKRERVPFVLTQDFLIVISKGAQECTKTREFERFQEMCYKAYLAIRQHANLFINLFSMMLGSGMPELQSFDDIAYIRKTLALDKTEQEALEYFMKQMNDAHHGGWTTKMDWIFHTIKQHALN

half-life [7]: 11 h
inhibition [8]: 85%
Compound: Cc1cc(Nc2cc(N)ncn2)c(=O)n2c1C(=O)NC21CCCCC1.Cl [TOMIVOSERTIB HYDROCHLORIDE]

IC50 [3]: 2300 nM
IC50 (PI3K p110 beta/p85 alpha): 3750 nM
Compound: Cc1csc2nc([C@H](C)Nc3ncnc4[nH]cnc34)c(-c3cccc(F)c3)c(=O)n12 [DEZAPELISIB]

IC50 [9]: 0.6 nM
IC50 [10]: 23 nM
IC50 [11]: 41 nM
Compound: NC(=O)c1nc(-c2c(F)cccc2Cl)oc1Nc1ccc(C(=O)N2CCOCC2)cc1

IC50 [1]: 0.2 nM
Compound: CC[C@@H]1[C@H](F)C(=O)N[C@@H]1COc1cccc2cc(C(N)=O)c(OC)cc12

Continued, compound first:

Compound: NC(=O)C[C@H]1CCc2sc3ncnc(O[C@H]4CC[C@H](N5CCOCC5)CC4)c3c21
IC50 [1]: 7.5 nM

Compound: CC(C)Oc1ccc(-c2nn([C@@H](C)c3oc4ccc(F)cc4c(=O)c3-c3cccc(F)c3)c3ncnc(N)c23)cc1F [UMBRALISIB]
IC50 [2]: > 10000 nM
IC50 [3]: 1400 nM
IC50 (PI3K p110 beta/p85 alpha): > 10000 nM

Compound: Fc1ccc2[nH]ccc2c1-c1nc(N2CCOCC2)c2sc(CN3CCN(CC4CC4)CC3)cc2n1
Ratio IC50 (Homo sapiens [4]): > 72
Ratio IC50 (Homo sapiens [5]): > 72
IC50 [2]: 2300 nM
IC50 [3]: > 10000 nM
Ratio IC50 (Homo sapiens [6]): > 72
IC50 (PI3K p110 beta/p85 alpha): 1080 nM

Compound: N#Cc1ccc(-c2cnc3ccc(-c4ccc(C(=O)N5CCOCC5)cc4)cn23)cc1 [TINODASERTIB]
half-life [7]: 25 h
